According to PMC12951568, “Identifying Structural Factors Governing the Photodynamic Activity of Phthalocyanines” (Journal of Medicinal Chemistry, 2026):
Where two headings read alike, the source gives them in different places.

Columns and labels:
[1] = Aggregation / monomerization in aqueous media (spectra in water and PBS); type: physicochemical; details: 1 μM
Description: (§1) An absorption spectrum of 2.475 mL of solvent (water, DMF, or PBS) was taken (i.e., absorption spectrum of baseline); then, 25 μL of stock solution was added to reach the final concentration of 1 μM in the cuvette, and the absorption and emission spectra were taken. Baseline of the solvent was subtracted from the obtained absorption spectrum to get the final absorption spectrum of the sample.

[2] = Log P, partition between n-octanol and PBS; type: physicochemical; details: partition coefficient between 1-octanol and PBS
Summary of the method: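 Sample from 100 μM stock added to equal volumes of n-octanol and PBS, vortexed 5 min at rt, centrifuged. Each layer diluted into DMF and emission spectra recorded; log P taken as log of octanol/PBS integrated fluorescence ratio, mean of triplicates.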

[3] = Fluorescence quantum yield, comparative method; type: physicochemical; details: in DMF; ZnPc as reference
Summary of the method: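 ΦF determined by the comparative method against ZnPc (ΦF 0.32 in THF), using integrated emission area, absorbance at the excitation wavelength and solvent refractive index. Q-band absorbance kept below 0.05; estimated error ± 15%.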

[4] = cited from earlier work; for ΦF, fluorescence quantum yield of nonionized analogue: determined for nonionized analogues containing free carboxylic acid, ref number not given (footnote b)
[5] = molecular target: bovine serum albumin (BSA) (Bos taurus, UniProt P02769); experiment: Interaction with bovine serum albumin (absorption and emission spectra in PBS); type: binding; details: 1 μM Pc in PBS, BSA 17.5, 35 and 100 μM
[6] = cited from earlier work; for ΦΔ, quantum yield of singlet oxygen production of nonionized analogue: determined for nonionized analogues containing free carboxylic acid, ref number not given (footnote b)
[7] = Absorption and fluorescence emission spectra in DMF; type: physicochemical; details: in DMF
Description: as §1

[8] = system: MCF-7 (human breast adenocarcinoma); design: method as in number not printed in Table 2; details: 12 h incubation, Xe-lamp 15 min, λ > 570 nm, 11.2 J/cm^2; mean ± SD; determined previously under the same conditions at the same workplace and published; ref number not given; cited from earlier work
[9] = system: HeLa (human cervical carcinoma); details: ref number not given, cited from earlier work
[10] = Quantum yield of singlet oxygen production, comparative method with DPBF scavenger; type: physicochemical; details: in DMF, ZnPc as reference
Summary of the method: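 Dye added from 100 μM DMF stock (or DMF/water, water); irradiated under stirring with xenon lamp through water filter and OG530 cut-off (>523 nm). DPBF decay followed at 415 nm; ΦΔ from ln(A0/At) slopes versus reference, normalised to absorbed light summed over 523–850 nm; triplicate means, ±10% error.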

[11] = system: SK-MEL-28 (human skin melanoma); design: method as in number not printed in Table 2; details: 12 h incubation, Xe-lamp 15 min, λ > 570 nm, 11.2 J/cm^2; mean ± SD; determined previously under the same conditions at the same workplace and published; ref number not given; cited from earlier work
[12] = system: MCF-7 (human breast adenocarcinoma); experiment: Photodynamic activity (phototoxicity, neutral red uptake) on MCF-7; type: cell-based; details: 12 h incubation, Xe-lamp 15 min, λ > 570 nm, 11.2 J/cm^2; mean ± SD; t.w. = this work
[13] = Fluorescence lifetime in DMF; type: physicochemical
Source text: 1 Photophysical Data of Investigated Derivatives in DMF ^a | column: τF1/ns; τF2/ns

[14] = 12 h incubation, Xe-lamp 15 min, λ > 570 nm, 11.2 J/cm^2, mean ± SD, determined previously under the same conditions at the same workplace and published, read-out: EC50 (nM) HeLa

Chain of bovine serum albumin (BSA) (P02769 25-607): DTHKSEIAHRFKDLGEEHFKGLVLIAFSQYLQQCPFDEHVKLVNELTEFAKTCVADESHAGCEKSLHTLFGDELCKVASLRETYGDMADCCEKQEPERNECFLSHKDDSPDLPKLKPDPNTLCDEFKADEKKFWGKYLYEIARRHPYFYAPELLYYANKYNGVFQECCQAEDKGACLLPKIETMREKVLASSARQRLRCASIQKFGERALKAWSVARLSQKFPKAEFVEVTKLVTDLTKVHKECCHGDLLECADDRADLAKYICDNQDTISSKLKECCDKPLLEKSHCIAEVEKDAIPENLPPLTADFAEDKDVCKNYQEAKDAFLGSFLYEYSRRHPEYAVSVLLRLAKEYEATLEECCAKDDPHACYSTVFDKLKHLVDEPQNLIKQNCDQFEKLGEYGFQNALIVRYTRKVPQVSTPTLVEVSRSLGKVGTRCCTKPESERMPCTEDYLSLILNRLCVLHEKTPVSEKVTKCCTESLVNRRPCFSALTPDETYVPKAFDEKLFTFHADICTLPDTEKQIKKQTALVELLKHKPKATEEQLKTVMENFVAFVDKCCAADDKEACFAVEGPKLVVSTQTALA

| SMILES | aggregation / monomeric state [1] | Log P [2] | ΦF, fluorescence quantum yield [3] | ΦF, fluorescence quantum yield of nonionized analogue [4] | Interaction with BSA: disaggregation/monomerization and changes in absorption and fluorescence emission spectra [5] | quenching of excited states upon BSA addition (decrease in Q-band maximum and fluorescence intensity) [5] | ΦΔ, quantum yield of singlet oxygen production of nonionized analogue [6] | ε, extinction coefficient [7] | λA, absorption maximum in the Q-band [7] | λF, fluorescence emission maximum [7] | EC50 [8] | EC50 ([9]; same irradiation conditions, previously published per Table 2, read-out: EC50 (HeLa)) | ΦΔ, quantum yield of singlet oxygen production [10] | EC50 [11] | EC50 [12] | EC50 [9, 14] | τF1, fluorescence lifetime (relative amplitude in brackets) [13] | ΦF of the reference standard ([4]; in THF, ref number not given) | ΦΔ of the reference standard ([6]; in DMF, ref number not given) |
| --- | --- | --- | --- | --- | --- | --- | --- | --- | --- | --- | --- | --- | --- | --- | --- | --- | --- | --- | --- |
| O=C([O-])c1cc(C(=O)[O-])cc(-c2cc3c(cc2-c2cc(C(=O)[O-])cc(C(=O)[O-])c2)C2=Nc4c5cc(-c6cc(C(=O)[O-])cc(C(=O)[O-])c6)c(-c6cc(C(=O)[O-])cc(C(=O)[O-])c6)cc5c5[n]4[Zn][n]4c(c6cc(-c7cc(C(=O)[O-])cc(C(=O)[O-])c7)c(-c7cc(C(=O)[O-])cc(C(=O)[O-])c7)cc6c4=NC4=NC(=N5)c5cc(-c6cc(C(=O)[O-])cc(C(=O)[O-])c6)c(-c6cc(C(=O)[O-])cc(C(=O)[O-])c6)cc54)=NC3=N2)c1.[Na+].[Na+].[Na+].[Na+].[Na+].[Na+].[Na+].[Na+].[Na+].[Na+].[Na+].[Na+].[Na+].[Na+].[Na+].[Na+] [A4Zn] | monomeric in water | –3.32 | 0.01 | 0.12 | slight bathochromic shift in the Q-band accompanied by partial quenching of the excited states | negligible | 0.45 (0.45) ^b | 168 630 M^–1cm^–1 | 694 nm | 708 nm | 5090 ± 1240 nM | 10300 nM |  |  |  |  |  |  |  |
| CC[N+](CC)(CC)CCSc1ccc(SCC[N+](CC)(CC)CC)c2c1C1=NC2=Nc2c3c(SCC[N+](CC)(CC)CC)ccc(SCC[N+](CC)(CC)CC)c3c3[n]2[Zn][n]2c(c4c(SCC[N+](CC)(CC)CC)ccc(SCC[N+](CC)(CC)CC)c4c2=NC2=NC(=N3)c3c(SCC[N+](CC)(CC)CC)ccc(SCC[N+](CC)(CC)CC)c32)=N1.[I-].[I-].[I-].[I-].[I-].[I-].[I-].[I-] [C9Zn] | did not sufficiently suppress aggregation | –1.65 | 0.06 |  |  |  |  | 134 170 M^–1cm^–1 | 757 nm | 783 nm |  |  | 0.64 | 220 ± 21 nM | 210 ± 10 nM | 310 ± 121 nM |  |  |  |
| Cc1cc(OCc2cn(CCO[C@@H]3O[C@H](CO)[C@@H](O)[C@H](O)[C@H]3O)nn2)c(Oc2cc3c(cc2Oc2c(OCc4cn(CCO[C@@H]5O[C@H](CO)[C@@H](O)[C@H](O)[C@H]5O)nn4)cc(C)cc2OCc2cn(CCO[C@@H]4O[C@H](CO)[C@@H](O)[C@H](O)[C@H]4O)nn2)C2=Nc4c5ccccc5c5[n]4[Zn][n]4c(c6ccccc6c4=NC3=N2)=NC2=NC(=N5)c3ccccc32)c(OCc2cn(CCO[C@@H]3O[C@H](CO)[C@@H](O)[C@H](O)[C@H]3O)nn2)c1 [N4Zn] |  | –0.65 | 0.29 |  |  |  |  | 293 750 M^–1cm^–1 | 672 nm | 681 nm | 1200 ± 100 nM |  | 0.59 | 500 ± 100 nM |  | 2070 ± 60 nM |  |  |  |
| O=C([O-])c1cc(Oc2cc3c(cc2Oc2cc(C(=O)[O-])cc(C(=O)[O-])c2)C2=Nc4c5cc(Oc6cc(C(=O)[O-])cc(C(=O)[O-])c6)c(Oc6cc(C(=O)[O-])cc(C(=O)[O-])c6)cc5c5[n]4[Zn][n]4c(c6cc(Oc7cc(C(=O)[O-])cc(C(=O)[O-])c7)c(Oc7cc(C(=O)[O-])cc(C(=O)[O-])c7)cc6c4=NC4=NC(=N5)c5cc(Oc6cc(C(=O)[O-])cc(C(=O)[O-])c6)c(Oc6cc(C(=O)[O-])cc(C(=O)[O-])c6)cc54)=NC3=N2)cc(C(=O)[O-])c1.[Na+].[Na+].[Na+].[Na+].[Na+].[Na+].[Na+].[Na+].[Na+].[Na+].[Na+].[Na+].[Na+].[Na+].[Na+].[Na+] [A3Zn] |  | –2.88 | 0.03 | 0.19 | slight bathochromic shift in the Q-band accompanied by partial quenching of the excited states | negligible | 0.42 | 172 640 M^–1cm^–1 | 677 nm | 688 nm | 3470 ± 670 nM |  | 0.24 |  |  | 5160 ± 1030 nM |  |  |  |
| Cc1cc(OCc2cn(CCOCCOCCO)nn2)c(Oc2cc3c(cc2Oc2c(OCc4cn(CCOCCOCCO)nn4)cc(C)cc2OCc2cn(CCOCCOCCO)nn2)C2=Nc4c5ccccc5c5[n]4[Zn][n]4c(c6ccccc6c4=NC3=N2)=NC2=NC(=N5)c3ccccc32)c(OCc2cn(CCOCCOCCO)nn2)c1 [N3Zn] |  | 1.90 | 0.28 |  |  |  |  | 280 340 M^–1cm^–1 | 672 nm | 681 nm | 1500 ± 300 nM |  | 0.48 | 900 ± 200 nM |  | 2200 ± 160 nM |  |  |  |
| O=C(O)c1cc(Oc2cc3c(cc2Oc2cc(C(=O)O)cc(C(=O)O)c2)C2=Nc4c5cc(Oc6cc(C(=O)O)cc(C(=O)O)c6)c(Oc6cc(C(=O)O)cc(C(=O)O)c6)cc5c5[n]4[Zn][n]4c(c6cc(Oc7cc(C(=O)O)cc(C(=O)O)c7)c(Oc7cc(C(=O)O)cc(C(=O)O)c7)cc6c4=NC4=NC(=N5)c5cc(Oc6cc(C(=O)O)cc(C(=O)O)c6)c(Oc6cc(C(=O)O)cc(C(=O)O)c6)cc54)=NC3=N2)cc(C(=O)O)c1 [A3Zn(COOH)] |  |  |  | 0.19 |  |  | 0.42 |  |  |  |  |  |  |  |  |  |  |  |  |
| Cc1cc(Cn2cc[n+](C)c2)c(Oc2c3c(c(C)c(C)[n+]2C)C2=Nc4c5c(Oc6c(Cn7cc[n+](C)c7)cc(C)cc6Cn6cc[n+](C)c6)[n+](C)c(C)c(C)c5c5[n]4[Zn][n]4c(c6c(C)c(C)[n+](C)c(Oc7c(Cn8cc[n+](C)c8)cc(C)cc7Cn7cc[n+](C)c7)c6c4=NC4=NC(=N5)c5c4c(C)c(C)[n+](C)c5Oc4c(Cn5cc[n+](C)c5)cc(C)cc4Cn4cc[n+](C)c4)=NC3=N2)c(Cn2cc[n+](C)c2)c1.[I-].[I-].[I-].[I-].[I-].[I-].[I-].[I-].[I-].[I-].[I-].[I-] [C11Zn] | full monomerization | –2.25 | 0.21 |  |  |  |  | 160 750 M^–1cm^–1 | 716 nm | 726 nm | 2.8 ± 0.1 nM |  | 0.53 | 3.8 ± 0.6 nM |  | 3.8 ± 0.2 nM | 1.41 ns |  |  |
| CC[N+](CC)(CC)CCSc1cc2c(cc1SCC[N+](CC)(CC)CC)C1=Nc3c4cc(SCC[N+](CC)(CC)CC)c(SCC[N+](CC)(CC)CC)cc4c4[n]3[Zn][n]3c(c5cc(SCC[N+](CC)(CC)CC)c(SCC[N+](CC)(CC)CC)cc5c3=NC3=NC(=N4)c4cc(SCC[N+](CC)(CC)CC)c(SCC[N+](CC)(CC)CC)cc43)=NC2=N1.[I-].[I-].[I-].[I-].[I-].[I-].[I-].[I-] [C8Zn] | did not sufficiently suppress aggregation | –1.59 | 0.29 |  |  |  |  | 281 600 M^–1cm^–1 | 704 nm | 714 nm |  |  | 0.63 | 320 ± 48 nM | 280 ± 40 nM | 540 ± 90 nM |  |  |  |
| [Zn+2].c1ccc2c(c1)-c1nc-2nc2[n-]c(nc3nc([n-]c4nc(n1)-c1ccccc1-4)-c1ccccc1-3)c1ccccc21 [ZnPc, unsubstituted zinc(II) phthalocyanine, reference compound] |  |  |  |  |  |  |  |  |  |  |  |  |  |  |  |  |  | 0.32 | 0.56 |
